From ChEMBL document CHEMBL2057083, “Development of new carbon-11 labelled radiotracers for imaging GABAA- and GABAB-benzodiazepine receptors” (Bioorg Med Chem, 2012)

Key:
Format in all cases: ADME, organism-based
[1] = Biodistribution in Sprague-Dawley rat rest of brain pretreated with unlabeled compound at 0.1 mg/kg, ip administered 30 mins before labeled compound treatment at 37 MBq, iv measured 15 mins post injection (0.20 +/- 0.01 %ID/g); design: dose 0.1 mg/kg; details: read-out: Drug uptake
Rattus norvegicus [2] = experiment: Biodistribution in Sprague-Dawley rat cortex (rest) at 37 MBq, iv measured 15 mins post injection; details: in vivo, 0.25 h
Rattus norvegicus [3] = experiment: Biodistribution in Sprague-Dawley rat cortex (front) at 37 MBq, iv measured 60 mins post injection; details: in vivo, 1 h
[4] = Biodistribution in Sprague-Dawley rat blood pretreated with unlabeled compound at 10 mg/kg, ip administered 30 mins before labeled compound treatment at 37 MBq, iv measured 15 mins post injection (0.11 +/- 0.01 %ID/g); design: dose 10 mg/kg; details: read-out: Drug uptake
[5] = Biodistribution in Sprague-Dawley rat striatum pretreated with unlabeled compound at 5 mg/kg, ip administered 30 mins before labeled compound treatment at 37 MBq, iv measured 15 mins post injection (reference value: 0.13 +/- 0.22 %ID/g); design: dose 5 mg/kg, route intravenous; details: read-out: Drug uptake
Rattus norvegicus [6] = experiment: Biodistribution in Sprague-Dawley rat cortex (rest) at 37 MBq, iv measured 30 mins post injection; details: in vivo, 0.5 h
Rattus norvegicus [7] = experiment: Biodistribution in Sprague-Dawley rat cortex (front) at 37 MBq, iv measured 5 mins post injection; details: in vivo
Blood [8] = experiment: Biodistribution in Sprague-Dawley rat blood at 37 MBq, iv measured 60 mins post injection; details: in vivo, 1 h
Rattus norvegicus [9] = experiment: Biodistribution in Sprague-Dawley rat cortex (front) at 37 MBq, iv measured 30 mins post injection; details: in vivo, 0.5 h
[10] = Biodistribution in Sprague-Dawley rat hippocampus pretreated with unlabeled compound at 10 mg/kg, ip administered 30 mins before labeled compound treatment at 37 MBq, iv measured 15 mins post injection (reference value: 0.22 +/- 0.22 %ID/g); design: dose 10 mg/kg; details: read-out: Drug uptake
Brain [11] = experiment: Biodistribution in Sprague-Dawley rat rest of brain at 37 MBq, iv measured 15 mins post injection; details: in vivo, 0.25 h
Rattus norvegicus [12] = experiment: Biodistribution in Sprague-Dawley rat cortex (rest) pretreated with unlabeled compound at 10 mg/kg, ip administered 30 mins before labeled compound treatment at 37 MBq, iv measured 15 mins post injection (0.36 +/- 0.02 %ID/g); design: dose 10 mg/kg; details: in vivo, 0.25 h
Brain [13] = experiment: Biodistribution in Sprague-Dawley rat rest of brain pretreated with unlabeled compound at 10 mg/kg, ip administered 30 mins before labeled compound treatment at 37 MBq, iv measured 15 mins post injection (0.20 +/- 0.01 %ID/g); design: dose 10 mg/kg; details: in vivo, 0.25 h
[14] = Metabolic stability of the compound in Sprague-Dawley rat plasma assessed as compound remaining at 37 MBq, iv measured after 15 mins; details: read-out: Stability
Hippocampus [15] = experiment: Biodistribution in Sprague-Dawley rat hippocampus at 37 MBq, iv measured 15 mins post injection; details: in vivo, 0.25 h
Blood [16] = experiment: Biodistribution in Sprague-Dawley rat blood pretreated with unlabeled compound at 5 mg/kg, ip administered 30 mins before labeled compound treatment at 37 MBq, iv measured 15 mins post injection (0.11 +/- 0.01 %ID/g); design: dose 5 mg/kg; details: in vivo, 0.25 h
[17] = Biodistribution in Sprague-Dawley rat hippocampus pretreated with unlabeled compound at 0.1 mg/kg, ip administered 30 mins before labeled compound treatment at 37 MBq, iv measured 15 mins post injection (reference value: 0.22 +/- 0.22 %ID/g); design: dose 0.1 mg/kg; details: read-out: Drug uptake
Striatum [18] = experiment: Biodistribution in Sprague-Dawley rat striatum at 37 MBq, iv measured 15 mins post injection; details: in vivo, 0.25 h
Striatum [19] = experiment: Biodistribution in Sprague-Dawley rat striatum at 37 MBq, iv measured 30 mins post injection; details: in vivo, 0.5 h
Striatum [20] = experiment: Biodistribution in Sprague-Dawley rat striatum pretreated with unlabeled compound at 10 mg/kg, ip administered 30 mins before labeled compound treatment at 37 MBq, iv measured 15 mins post injection (reference value: 0.13 +/- 0.22 %ID/g); design: dose 10 mg/kg, route intravenous; details: in vivo, 0.25 h
Hippocampus [21] = experiment: Biodistribution in Sprague-Dawley rat hippocampus at 37 MBq, iv measured 5 mins post injection; details: in vivo
Brain [22] = experiment: Biodistribution in Sprague-Dawley rat rest of brain at 37 MBq, iv measured 60 mins post injection; details: in vivo, 1 h
Cerebellum [23] = experiment: Biodistribution in Sprague-Dawley rat cerebellum at 37 MBq, iv measured 15 mins post injection; details: in vivo, 0.25 h
Rattus norvegicus [24] = experiment: Biodistribution in Sprague-Dawley rat cortex (rest) at 37 MBq, iv measured 5 mins post injection; details: in vivo
Rattus norvegicus [25] = experiment: Biodistribution in Sprague-Dawley rat cortex (rest) at 37 MBq, iv measured 60 mins post injection; details: in vivo, 1 h
Blood [26] = experiment: Biodistribution in Sprague-Dawley rat blood at 37 MBq, iv measured 5 mins post injection; details: in vivo
Blood [27] = experiment: Biodistribution in Sprague-Dawley rat blood at 37 MBq, iv measured 15 mins post injection; details: in vivo, 0.25 h
Rattus norvegicus [28] = experiment: Biodistribution in Sprague-Dawley rat cortex (front) at 37 MBq, iv measured 15 mins post injection; details: in vivo, 0.25 h
Cerebellum [29] = experiment: Biodistribution in Sprague-Dawley rat cerebellum at 37 MBq, iv measured 60 mins post injection; details: in vivo, 1 h
Striatum [30] = experiment: Biodistribution in Sprague-Dawley rat striatum pretreated with unlabeled compound at 0.1 mg/kg, ip administered 30 mins before labeled compound treatment at 37 MBq, iv measured 15 mins post injection (reference value: 0.13 +/- 0.22 %ID/g); design: dose 0.1 mg/kg, route intravenous; details: in vivo, 0.25 h
[31] = Biodistribution in Sprague-Dawley rat cerebellum pretreated with unlabeled compound at 0.1 mg/kg, ip administered 30 mins before labeled compound treatment at 37 MBq, iv measured 15 mins post injection (reference value: 0.26 %ID/g); design: dose 0.1 mg/kg; details: read-out: Drug uptake
Cerebellum [32] = experiment: Biodistribution in Sprague-Dawley rat cerebellum at 37 MBq, iv measured 30 mins post injection; details: in vivo, 0.5 h
Brain [33] = experiment: Biodistribution in Sprague-Dawley rat rest of brain pretreated with unlabeled compound at 5 mg/kg, ip administered 30 mins before labeled compound treatment at 37 MBq, iv measured 15 mins post injection (0.20 +/- 0.01 %ID/g); design: dose 5 mg/kg, route intravenous; details: in vivo, 0.25 h
[34] = Biodistribution in Sprague-Dawley rat cortex (rest) pretreated with unlabeled compound at 0.1 mg/kg, ip administered 30 mins before labeled compound treatment at 37 MBq, iv measured 15 mins post injection (0.36 +/- 0.02 %ID/g); design: dose 0.1 mg/kg; details: read-out: Drug uptake
Hippocampus [35] = experiment: Biodistribution in Sprague-Dawley rat hippocampus at 37 MBq, iv measured 60 mins post injection; details: in vivo, 1 h
Striatum [36] = experiment: Biodistribution in Sprague-Dawley rat striatum at 37 MBq, iv measured 5 mins post injection; details: in vivo
Rattus norvegicus [37] = experiment: Biodistribution in Sprague-Dawley rat cortex (front) pretreated with unlabeled compound at 10 mg/kg, ip administered 30 mins before labeled compound treatment at 37 MBq, iv measured 15 mins post infection (reference value: 0.42 +/- 0.04%ID/g); design: dose 10 mg/kg; details: in vivo, 0.25 h
[38] = Metabolic stability of the compound in Sprague-Dawley rat brain assessed as compound remaining at 37 MBq, iv measured after 15 mins; details: read-out: Stability
Brain [39] = experiment: Biodistribution in Sprague-Dawley rat rest of brain at 37 MBq, iv measured 5 mins post injection; details: in vivo
Plasma = experiment: Drug metabolism in Sprague-Dawley rat plasma at 37 MBq, iv measured after 5 mins; details: in vivo
Rattus norvegicus [40] = experiment: Biodistribution in Sprague-Dawley rat cortex (front) pretreated with unlabeled compound at 0.1 mg/kg, ip administered 30 mins before labeled compound treatment at 37 MBq, iv measured 15 mins post infection (reference value: 0.42 +/- 0.04%ID/g); design: dose 0.1 mg/kg; details: in vivo, 0.25 h
Blood [41] = experiment: Biodistribution in Sprague-Dawley rat blood pretreated with unlabeled compound at 0.1 mg/kg, ip administered 30 mins before labeled compound treatment at 37 MBq, iv measured 15 mins post injection (0.11 +/- 0.01 %ID/g); design: dose 0.1 mg/kg; details: in vivo, 0.25 h
Hippocampus [42] = experiment: Biodistribution in Sprague-Dawley rat hippocampus at 37 MBq, iv measured 30 mins post injection; details: in vivo, 0.5 h
[43] = Biodistribution in Sprague-Dawley rat hippocampus pretreated with unlabeled compound at 5 mg/kg, ip administered 30 mins before labeled compound treatment at 37 MBq, iv measured 15 mins post injection (reference value: 0.22 +/- 0.22 %ID/g); design: dose 5 mg/kg; details: read-out: Drug uptake
Rattus norvegicus [44] = experiment: Biodistribution in Sprague-Dawley rat cortex (rest) pretreated with unlabeled compound at 5 mg/kg, ip administered 30 mins before labeled compound treatment at 37 MBq, iv measured 15 mins post injection (0.36 +/- 0.02 %ID/g); design: dose 5 mg/kg; details: in vivo, 0.25 h
Rattus norvegicus [45] = experiment: Biodistribution in Sprague-Dawley rat cortex (front) pretreated with unlabeled compound at 5 mg/kg, ip administered 30 mins before labeled compound treatment at 37 MBq, iv measured 15 mins post infection (reference value: 0.42 +/- 0.04%ID/g); design: dose 5 mg/kg; details: in vivo, 0.25 h
Cerebellum [46] = experiment: Biodistribution in Sprague-Dawley rat cerebellum at 37 MBq, iv measured 5 mins post injection; details: in vivo
[47] = Biodistribution in Sprague-Dawley rat cerebellum pretreated with unlabeled compound at 5 mg/kg, ip administered 30 mins before labeled compound treatment at 37 MBq, iv measured 15 mins post injection (reference value: 0.26 %ID/g); design: dose 5 mg/kg; details: read-out: Drug uptake
Brain [48] = experiment: Biodistribution in Sprague-Dawley rat rest of brain at 37 MBq, iv measured 30 mins post injection; details: in vivo, 0.5 h
Striatum [49] = experiment: Biodistribution in Sprague-Dawley rat striatum at 37 MBq, iv measured 60 mins post injection; details: in vivo, 1 h
Blood [50] = experiment: Biodistribution in Sprague-Dawley rat blood at 37 MBq, iv measured 30 mins post injection; details: in vivo, 0.5 h
[51] = Biodistribution in Sprague-Dawley rat cerebellum pretreated with unlabeled compound at 10 mg/kg, ip administered 30 mins before labeled compound treatment at 37 MBq, iv measured 15 mins post injection (reference value: 0.26 %ID/g); design: dose 10 mg/kg; details: read-out: Drug uptake

Work on [11CH3]Oc1ncccc1-c1cccc2c(N)c3c(nc12)CN(C1CCC1)C3=O yielded a tissue uptake at 0.25 h [1] of 0.16 %ID/g, a Drug uptake (Rattus norvegicus [2]) of 0.46 % ID/g and a Drug uptake (Rattus norvegicus [3]) of 0.21 % ID/g. It also gave a tissue uptake at 0.25 h [4] of 0.12 %ID/g, a tissue uptake at 0.25 h [5] of 0.1 %ID/g and a Drug uptake (Rattus norvegicus [6]) of 0.37 % ID/g. It also gave a Drug uptake (Rattus norvegicus [7]) of 0.47 % ID/g, a Drug uptake (Blood [8]) of 0.08 % ID/g and a Drug uptake (Rattus norvegicus [9]) of 0.44 % ID/g. It also gave a tissue uptake at 0.25 h [10] of 0.08 %ID/g, a Drug uptake (Brain [11]) of 0.27 % ID/g and a Drug uptake (Rattus norvegicus [12]) of 0.11 % ID/g. It also gave a Drug uptake (Brain [13]) of 0.09 % ID/g, a remaining at 0.25 h [14] of 71% and a Drug uptake (Hippocampus [15]) of 0.29 % ID/g. It also gave a Drug uptake (Blood [16]) of 0.12 % ID/g, a tissue uptake at 0.25 h [17] of 0.17 %ID/g and a Drug uptake (Striatum [18]) of 0.21 % ID/g. It also gave a Drug uptake (Striatum [19]) of 0.15 % ID/g, a Drug uptake (Striatum [20]) of 0.08 % ID/g and a Drug uptake (Hippocampus [21]) of 0.2 % ID/g. It also gave a Drug uptake (Brain [22]) of 0.11 % ID/g, a Drug uptake (Cerebellum [23]) of 0.34 % ID/g and a Drug uptake (Rattus norvegicus [24]) of 0.45 % ID/g. It also gave a Drug uptake (Rattus norvegicus [25]) of 0.16 % ID/g, a Drug uptake (Blood [26]) of 0.14 % ID/g and a Drug uptake (Blood [27]) of 0.15 % ID/g. It also gave a Drug uptake (Rattus norvegicus [28]) of 0.53 % ID/g, a Drug uptake (Cerebellum [29]) of 0.13 % ID/g and a Drug uptake (Striatum [30]) of 0.14 % ID/g. For the same compound, the tissue uptake at 0.25 h [31] was 0.22 %ID/g, the Drug uptake (Cerebellum [32]) was 0.26 % ID/g and the Drug uptake (Brain [33]) was 0.09 % ID/g. The tissue uptake at 0.25 h [34] was 0.27 %ID/g, the Drug uptake (Hippocampus [35]) was 0.09 % ID/g and the Drug uptake (Striatum [36]) was 0.26 % ID/g. The Drug uptake (Rattus norvegicus [37]) was 0.13 % ID/g, the remaining at 0.25 h [38] was greater than 99% and the Drug uptake (Brain [39]) was 0.25 % ID/g. For the same compound, the Drug metabolism (Plasma) was “Active”, the Drug uptake (Rattus norvegicus [40]) was 0.36 % ID/g and the Drug uptake (Blood [41]) was 0.11 % ID/g. It also gave a Drug uptake (Hippocampus [42]) of 0.24 % ID/g, a tissue uptake at 0.25 h [43] of 0.11 %ID/g and a Drug uptake (Rattus norvegicus [44]) of 0.14 % ID/g. It also gave a Drug uptake (Rattus norvegicus [45]) of 0.16 % ID/g, a Drug uptake (Cerebellum [46]) of 0.36 % ID/g and a tissue uptake at 0.25 h [47] of 0.12 %ID/g. For the same compound, the Drug uptake (Brain [48]) was 0.22 % ID/g, the Drug uptake (Striatum [49]) was 0.06 % ID/g and the Drug uptake (Blood [50]) was 0.11 % ID/g. For the same compound, the tissue uptake at 0.25 h [51] was 0.09 %ID/g.
